Assay results from patent US20090275583A1, “ANTIVIRAL COMPOUNDS AND USE THEREOF” (Myriad Genetics, Incorporated, priority 2006, published 2009).
Where two headings read alike, the source gives them in different places.

Legend:
[1] = system: HIV-1 laboratory strain, NL4-3; assay: MT-4 cytoprotection assay; assay type: cell-based; details: Human immunodeficiency virus 1, NL43, MT4, 96 h; MT-4 cells, four days incubation, WST-1 readout; read-out: MT4 EC50
Method: The HTLV-1 transformed T cell line, MT-4, is highly susceptible to HIV-1 infection. Anti-HIV-1 agents were evaluated in this target cell line by protection from the HIV-induced cytopathic effect. In this assay, viability of both HIV-1 and mock-infected cells was assessed in a […] assay that monitors the ability of metabolically-active cells to reduce the tetrazolium salt WST-1. Cytoprotection by antiviral compounds is indicated by the positive readout of increased WST-1 cleavage.
Briefly, exponentially growing MT-4 cells were mock-infected or batch-infected with the HIV-1 laboratory strain, NL4-3, at a multiplicity of infection of 0.0005. Following a two hour infection, the cells were washed to remove unbound virus and plated in the presence of increasing concentrations of compound. After four days incubation, cytoprotection in the infected cells and compound toxicity in mock-infected cells were analyzed using the WST-1 assay.

HIV-1NL4-3 = assay: P4-MAGI assay; assay type: cell-based
Text: P4 cells were used to test the effects of compounds on virus fusion activity. P4 cells are HIV-1 infectable CD4^+ HeLa cells that bear the bacterial lacZ gene under the control of a minimal HIV-1 LTR. Charneau, et. al., J. Mol. Biol. 241:651-662 (1994). When these cells are infected with HIV-1, β-galactosidase is expressed due to Tat activation of the viral LTR. In this assay, P4 cells were infected with the laboratory adapted strain HIV-1NL4-3 at a multiplicity of infection of 1 in the presence of DEAE-Dextran. Immediately after addition of virus to the cells, increasing concentrations of compound were added to the cells. […] The effect on cell viability (TC50, concentration of compound that inhibits growth by 50%) was determined in mock-infected cells with the WST-1 Cell Proliferation Reagent (Roche Diagnostics).

[2] = Human immunodeficiency virus 1, 24 h, P4 cells, 24 hour incubation, β-galactosidase expression, read-out: P4-MAGI IC50
[3] = Human immunodeficiency virus 1, text statement, less than about 100 nm, read-out: P4-MAGI assay IC50

Compound | EC50 [1] [nM] | IC50 (HIV-1NL4-3; [2]) [nM] | IC50 (HIV-1NL4-3; [3]) [nM]
C=C(C)[C@@H]1CC[C@]2(C(=O)NCCc3cccc(C(=O)NCc4ccc(C(=O)NCCC5CCCN5C)cc4)c3)CC[C@]3(C)C(CCC4[C@@]5(C)CC[C@H](O)C(C)(C)C5CC[C@]43C)C12 (stereo partly drawn) [Example 171] | 11 | 50 | 
C=C(C)[C@@H]1CC[C@]2(C(=O)NCCc3cccc(C(=O)NCc4ccc(C(=O)N[C@H](CO)C(=O)OC)cc4)c3)CC[C@]3(C)C(CCC4[C@@]5(C)CC[C@H](O)C(C)(C)C5CC[C@]43C)C12 (stereo partly drawn) [Example 175] | 4 | 13 | 
C=C(C)[C@@H]1CC[C@]2(C(=O)NCc3cccc(C(=O)NCCC(=O)O)c3)CC[C@]3(C)C(CCC4[C@@]5(C)CC[C@H](O)C(C)(C)C5CC[C@]43C)C12 (stereo partly drawn) [Example 3] | 10000 |  | 
C=C(C)[C@@H]1CC[C@]2(C(=O)NCc3ccc(C(=O)NCCCCCCC(=O)O)cc3)CC[C@]3(C)C(CCC4[C@@]5(C)CC[C@H](O)C(C)(C)C5CC[C@]43C)C12 (stereo partly drawn) [Example 51] | 10000 |  | 
C=C(C)[C@@H]1CC[C@]2(C(=O)NCc3cccc(C(=O)NCCc4cccc(C(=O)O)c4)c3)CC[C@]3(C)C(CCC4[C@@]5(C)CC[C@H](O)C(C)(C)C5CC[C@]43C)C12 (stereo partly drawn) [Example 16] | 210 |  | 
C=C(C)[C@@H]1CC[C@]2(C(=O)NCc3ccc(C(=O)NCCC(=O)O)cc3)CC[C@]3(C)C(CCC4[C@@]5(C)CC[C@H](O)C(C)(C)C5CC[C@]43C)C12 (stereo partly drawn) [Example 49] | 10000 |  | 
C=C(C)[C@@H]1CC[C@]2(C(=O)NCc3cccc(C(=O)NC4(Cc5ccc(C(=O)O)cc5)CC4)c3)CC[C@]3(C)C(CCC4[C@@]5(C)CC[C@H](O)C(C)(C)C5CC[C@]43C)C12 (stereo partly drawn) [Example 28] |  | 1200 | 
C=C(C)[C@@H]1CC[C@]2(C(=O)NCc3cccc(C(=O)Nc4ccc(O)c(C(=O)O)c4)c3)CC[C@]3(C)C(CCC4[C@@]5(C)CC[C@H](O)C(C)(C)C5CC[C@]43C)C12 (stereo partly drawn) [Example 12] |  | 7200 | 
C=C(C)[C@@H]1CC[C@]2(C(=O)NCc3cccc(C(=O)O)n3)CC[C@]3(C)C(CCC4[C@@]5(C)CC[C@H](O)C(C)(C)C5CC[C@]43C)C12 (stereo partly drawn) [Example 86] |  | 3600 | 
C=C(C)[C@@H]1CC[C@]2(C(=O)NCCc3cc(C(=O)NCc4ccc(C(=O)O)cn4)ccc3F)CC[C@]3(C)C(CCC4[C@@]5(C)CC[C@H](O)C(C)(C)C5CC[C@]43C)C12 (stereo partly drawn) [Example 263] |  | 198 | 
CC(O)(CN1CCCC1)[C@@H]1CC[C@]2(C(=O)NCc3cccc(C(=O)NCCCCC(=O)O)c3)CC[C@]3(C)C(CCC4[C@@]5(C)CC[C@H](O)C(C)(C)C5CC[C@]43C)C12 (stereo partly drawn) [Example 138] |  | 550 | 
C=C(C)[C@@H]1CC[C@]2(C(=O)NCc3cccc(C(=O)Nc4cccc(C(=O)O)c4)c3)CC[C@]3(C)C(CCC4[C@@]5(C)CC[C@H](O)C(C)(C)C5CC[C@]43C)C12 (stereo partly drawn) [Example 15] |  | 320 | 
C=C(C)[C@@H]1CC[C@]2(C(=O)NCCc3cccc(C(=O)N[C@@H](CCC(=O)OC)C(N)=O)c3)CC[C@]3(C)C(CCC4[C@@]5(C)CC[C@H](O)C(C)(C)C5CC[C@]43C)C12 (stereo partly drawn) [Example 77] |  | 106 | 
C=C(C)[C@@H]1CC[C@]2(C(=O)NCC(C)c3cccc(C(=O)NCc4cccc(C(=O)O)c4C)c3)CC[C@]3(C)C(CCC4[C@@]5(C)CC[C@H](O)C(C)(C)C5CC[C@]43C)C12 (stereo partly drawn) [Example 83] |  | 270 | 
C=C(C)[C@@H]1CC[C@]2(C(=O)NCCc3cccc(OCCCCC(=O)O)c3)CC[C@]3(C)C(CCC4[C@@]5(C)CC[C@H](O)C(C)(C)C5CC[C@]43C)C12 (stereo partly drawn) [Example 113] |  | 721 | 
C=C(C)[C@@H]1CC[C@]2(C(=O)N[C@@H](Cc3ccc(OCCCCC(=O)O)cc3)C(=O)O)CC[C@]3(C)C(CCC4[C@@]5(C)CC[C@H](O)C(C)(C)C5CC[C@]43C)C12 (stereo partly drawn) [Example 115] |  | 10000 | 
C=C(C)[C@@H]1CC[C@]2(C(=O)NCc3ccc(C(=O)NCc4ccc(C(=O)OC)o4)o3)CC[C@]3(C)C(CCC4[C@@]5(C)CC[C@H](O)C(C)(C)C5CC[C@]43C)C12 (stereo partly drawn) [Example 89] |  | 2300 | 
C=C(C)[C@@H]1CC[C@]2(C(=O)NCc3cccc(-c4noc(Cc5ccc(C#N)cc5)n4)c3)CC[C@]3(C)C(CCC4[C@@]5(C)CC[C@H](O)C(C)(C)C5CC[C@]43C)C12 (stereo partly drawn) [Example 276] |  | 10000 | 
C=C(C)[C@@H]1CC[C@]2(C(=O)NCc3cccc(C(=O)NCCc4cccc(C(=O)O)c4)c3)CC[C@]3(C)C(CCC4[C@@]5(C)CC[C@H](O)C(C)(C)C5CC[C@]43C)C12 (stereo partly drawn) [Example 11] |  | 55 | < 100

Compound | EC50 [1] [nM] | IC50 (HIV-1NL4-3; [2]) [nM] | IC50 (HIV-1NL4-3; [3]) [nM]
C=C(C)[C@@H]1CC[C@]2(C(=O)NCc3cccc(CNC(=O)c4cc(C(=O)O)ccc4C(=O)O)c3)CC[C@]3(C)C(CCC4[C@@]5(C)CC[C@H](O)C(C)(C)C5CC[C@]43C)C12 (stereo partly drawn) [Example 79] |  | 412 | 
C=C(C)[C@@H]1CC[C@]2(C(=O)NCCc3cccc(C(=O)NCc4ccc(OCCCN5CCNCC5)cc4)c3)CC[C@]3(C)C(CCC4[C@@]5(C)CC[C@H](O)C(C)(C)C5CC[C@]43C)C12 (stereo partly drawn) [Example 238] |  | 678 | 
C=C(C)[C@@H]1CC[C@]2(C(=O)NCCc3cc(C(=O)NCc4ccc(C(=O)OC)cn4)ccc3F)CC[C@]3(C)C(CCC4[C@@]5(C)CC[C@H](O)C(C)(C)C5CC[C@]43C)C12 (stereo partly drawn) [Example 260] |  | 150 | 
C=C(C)[C@@H]1CC[C@]2(C(=O)NCc3cc(C(=O)NCc4ccc(N(C)C)cc4)ccc3F)CC[C@]3(C)C(CCC4[C@@]5(C)CC[C@H](O)C(C)(C)C5CC[C@]43C)C12 (stereo partly drawn) [Example 180] |  | 1000 | 
C=C(C)[C@@H]1CC[C@]2(C(=O)NCc3ccc(C(=O)NCCCCC(=O)O)cc3)CC[C@]3(C)C(CCC4[C@@]5(C)CC[C@H](O)C(C)(C)C5CC[C@]43C)C12 (stereo partly drawn) [Example 50] | 10000 |  | 
C=C(C)[C@@H]1CC[C@]2(C(=O)NCc3cccc(-c4cccc(C(=O)O)c4)c3)CC[C@]3(C)C(CCC4[C@@]5(C)CC[C@H](O)C(C)(C)C5CC[C@]43C)C12 (stereo partly drawn) [Example 128] |  | 1000 | 
C=C(C)[C@@H]1CC[C@]2(C(=O)NCc3cccc(-c4cccc(C(=O)N[C@@H](CC(C)C)[C@@H](O)CC(=O)O)c4)c3)CC[C@]3(C)C(CCC4[C@@]5(C)CC[C@H](O)C(C)(C)C5CC[C@]43C)C12 (stereo partly drawn) [Example 129] |  | 3600 | 
C=C(C)[C@@H]1CC[C@]2(C(=O)NCC(C)c3cccc(C(=O)NCc4cccc(C(=O)O)c4)c3)CC[C@]3(C)C(CCC4[C@@]5(C)CC[C@H](O)C(C)(C)C5CC[C@]43C)C12 (stereo partly drawn) [Example 82] |  | 150 | 
C=C(C)[C@@H]1CC[C@]2(C(=O)NCCc3cccc(OCC(O)c4ccc(C(=O)O)cc4)c3)CC[C@]3(C)C(CCC4[C@@]5(C)CC[C@H](O)C(C)(C)C5CC[C@]43C)C12 (stereo partly drawn) [Example 220] |  | 259 | 
C=C(C)[C@@H]1CC[C@]2(C(=O)NCc3cccc(C(=O)NCc4ccc(OC)cc4OC)c3)CC[C@]3(C)C(CCC4[C@@]5(C)CC[C@H](O)C(C)(C)C5CC[C@]43C)C12 (stereo partly drawn) [Example 46] |  | 59 | < 100
C=C(C)[C@@H]1CC[C@]2(C(=O)NCc3cccc(C(=O)NCc4ccccc4C(=O)O)c3)CC[C@]3(C)C(CCC4[C@@]5(C)CC[C@H](O)C(C)(C)C5CC[C@]43C)C12 (stereo partly drawn) [Example 8] |  | 875 | 
C=C(C)[C@@H]1CC[C@]2(C(=O)NCCc3cccc(C(=O)NC4CCC(C(=O)O)CC4)c3)CC[C@]3(C)C(CCC4[C@@]5(C)CC[C@H](O)C(C)(C)C5CC[C@]43C)C12 (stereo partly drawn) [Example 209] |  | 356 | 
C=C(C)[C@@H]1CC[C@]2(C(=O)NCCc3cccc(S(=O)(=O)NCc4cccc(C(=O)O)c4)c3)CC[C@]3(C)C(CCC4[C@@]5(C)CC[C@H](O)C(C)(C)C5CC[C@]43C)C12 (stereo partly drawn) [Example 249] |  | 143 | 
C=C(C)[C@@H]1CC[C@]2(C(=O)NCCc3cccc(C(=O)NCc4ccc(OCCCn5cnc(C(=O)O)c5)c(C(=O)O)c4)c3)CC[C@]3(C)C(CCC4[C@@]5(C)CC[C@H](O)C(C)(C)C5CC[C@]43C)C12 (stereo partly drawn) [Example 247] |  | 417 | 
C=C(C)[C@@H]1CC[C@]2(C(=O)NCc3ccc(C(=O)O)o3)CC[C@]3(C)C(CCC4[C@@]5(C)CC[C@H](O)C(C)(C)C5CC[C@]43C)C12 (stereo partly drawn) [Example 88] |  | 6900 | 
C=C(C)[C@@H]1CC[C@]2(C(=O)NCc3ccc(C(=O)NCCNC(=O)OCc4ccccc4)cc3)CC[C@]3(C)C(CCC4[C@@]5(C)CC[C@H](O)C(C)(C)C5CC[C@]43C)C12 (stereo partly drawn) [Example 53] | 10000 |  | 
CC(O)(CO)[C@@H]1CC[C@]2(C(=O)NCc3cccc(C(=O)NCCCCC(=O)O)c3)CC[C@]3(C)C(CCC4[C@@]5(C)CC[C@H](O)C(C)(C)C5CC[C@]43C)C12 (single isomer, unassigned) [Example 139] |  | 1500 | 
C=C(C)[C@@H]1CC[C@]2(C(=O)NCc3ccc(C(=O)NCCNC(C)=O)cc3)CC[C@]3(C)C(CCC4[C@@]5(C)CC[C@H](O)C(C)(C)C5CC[C@]43C)C12 (stereo partly drawn) [Example 52] | 10000 |  | 
C=C(C)[C@@H]1CC[C@]2(C(=O)NCc3cccc(C(=O)NCc4ccc(OCCCN(C)CCN(C)C)c(C(=O)OC)c4)c3)CC[C@]3(C)C(CCC4[C@@]5(C)CC[C@H](O)C(C)(C)C5CC[C@]43C)C12 (stereo partly drawn) [Example 122] |  | 265 | 
